What all share (type): in vivo
What all share (details): active ingredient amount 31 g/ha, 14th day after application

Test [1] relates to rice (Oryza sativa L.). As to the kind of experiment: Test Example 2: soil application on the day after sowing, growth inhibition rate on 14th day. The procedure, abridged: (§1)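 Read-out is visual percent growth inhibition 14 days post-application, scaled from 0 (as non-treated) to 100 (complete kill). Treatment: soil application by small sprayer the day after sowing, compound formulations diluted in water equivalent to 1,000 L/ha.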

Test [2] deals with soybean (Glycine max Merr.). Described as above. Put shortly:
as §1

The test system of test [3] is wheat (Triticum aestivum L.). The test is described as above. Put shortly:
as §1

In test [4] the test system is green foxtail (Setaria viridis L.). The test is described as above. Put shortly: as §1
For test [5], the system named is corn (Zea mays L.). Described as above. Put shortly: as §1
Test [6] has as its system barnyardgrass (Echinochloa crus-qalli L.). The description is as above. The procedure, abridged: as §1
In test [7] the test system is velvetleaf (Abutilon theophrasti MEDIC.). The description is as above. Put shortly: as §1
The subject of test [8] is redroot pigweed (Amaranthus retroflexus L.). Described as above. The procedure, abridged:
as §1

In test [9] the test system is crabgrass (Digitaris sanquinalis L.). The description is as above. Put shortly: as §1
Test [10] has as its system prickly sida (Sida spinosa L.). The test is described as above. Put shortly: as §1
Test [11] relates to rice (Oryza sativa L.). Nature of the test: Test Example 1: foliar treatment, growth inhibition rate on 14th day. The procedure, abridged:
(§2)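 Compounds applied once to leaves of pot-grown plants; wild oat at 0.4–1.2 leaf, foxtail 0.5–3.2, rice 0.2–2.7, soybean primary leaf. Inhibition estimated by eye on day 14.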

Test [12] concerns soybean (Glycine max Merr.). The test is described as above. Put shortly:
as §2

In test [13] the test system is wheat (Triticum aestivum L.). Described as above. Put shortly:
(§3)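 Using a small sprayer, formulated compound in water (0.1 vol % surfactant, 1,000 L/ha) was applied to seedlings grown from seed in upland soil. Fourteen days on, growth state was observed and expressed as percent inhibition from 0 to 100.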

The subject of test [14] is green foxtail (Setaria viridis L.). Described as above. The procedure, abridged:
as §2

Test [15] has as its system corn (Zea mays L.). The description is as above. Put shortly: as §3
Test [16] relates to barnyardgrass (Echinochloa crus-qalli L.). Described as above. The procedure, abridged:
as §3

Test [17] concerns italian ryegrass (Lolium multiflorum Lam.). Described as above. Put shortly: as §3
For test [18], the system named is redroot pigweed (Amaranthus retroflexus L.). The description is as above. The procedure, abridged:
as §3

The subject of test [19] is crabgrass (Digitaria sanquinalis L.). The description is as above. Put shortly:
as §3

Test [20] deals with wild oat (Avena fatua L.). Described as above. Put shortly: as §2
Setting [21] is: visual, 0 = non-treated, 100 = complete kill.

Each structure is given as a SMILES string.

For `CC(=O)Oc1c(C)nn(C)c(=O)c1-c1cc(Oc2ccc3cc(Br)ccc3n2)ccc1C` [Compound 2-127], the “Growth inhibition rate (%) Rice” value in test [1] was 0%; in test [11], 70%. Moreover, the “Growth inhibition rate (%) Soybean” value in test [2] and in test [12] was 0% throughout. Moreover, the “Growth inhibition rate (%) Wheat” value is 0% in test [3] and 100% in test [13]. For the same compound, the “Growth inhibition rate (%) Green foxtail” value in test [4] was found to be 78%; in [14], 100%. In addition, the “Growth inhibition rate (%) Corn” value in test [5] and in test [15] was 0% each time. In addition, the “Growth inhibition rate (%) Barnyardgrass” value in [6] was found to be 93%; in test [16] it was 100%. Further, the “Growth inhibition rate (%) Velvetleaf” value in test [7] worked out at 0%. Also, the “Growth inhibition rate (%) Redroot pigweed” value in test [8] and in test [18] was 0% each time. Besides, the “Growth inhibition rate (%) Crabgrass” value is on record as 10% in test [9] and 30% in test [19]. In [10], the “Growth inhibition rate (%) Prickly sida” value came to 0%. The “Growth inhibition rate (%) Italian ryegrass” value in [17] turned out to be 78%. For the same compound, in test [20], the “Growth inhibition rate (%) Wild oat” value was 90%.

As for `Cc1ccc(Oc2cnc3cc(Cl)ccc3n2)cc1-c1c(OC(=O)C=CCl)c(C)nn(C)c1=O` [Compound 3-54], the “Growth inhibition rate (%) Rice” value in test [1] is 0%; in test [11] (setting [21]), 20%. The “Growth inhibition rate (%) Soybean” value in test [2] came to 0%; in test [12] (setting [21]), 20%. For the same compound, the “Growth inhibition rate (%) Wheat” value is 0% in [3] and 93% in test [13] (setting [21]). The “Growth inhibition rate (%) Green foxtail” value in test [4] is given as 98%; in test [14] (setting [21]), 100%. Also, the “Growth inhibition rate (%) Corn” value in [5] was found to be 0%; in test [15] (setting [21]), 30%. Besides, the “Growth inhibition rate (%) Barnyardgrass” value came out at 99% in test [6] and 100% in test [16] (setting [21]). In addition, in test [7], the “Growth inhibition rate (%) Velvetleaf” value is 0%. The “Growth inhibition rate (%) Redroot pigweed” value in [8] and in test [18] (setting [21]) was 0% throughout. For the same compound, the “Growth inhibition rate (%) Crabgrass” value in [9] is 30%; in test [19] (setting [21]), 98%. In addition, the “Growth inhibition rate (%) Prickly sida” value in test [10] is on record as 0%. For the same compound, the “Growth inhibition rate (%) Italian ryegrass” value in test [17] (setting [21]) amounted to 95%. In test [20] (setting [21]), the “Growth inhibition rate (%) Wild oat” value is listed as 78%.

On to `Cc1nn(C)c(=O)c(-c2cc(Oc3ncc(C(F)(F)F)cc3Cl)ccc2C2CC2)c1O` [1-149], for which the “Growth inhibition rate (%) Rice” value in [1] was 0%; in test [11], 70%. In addition, the “Growth inhibition rate (%) Soybean” value in test [2] and in test [12] was 0% each time. In addition, the results for the “Growth inhibition rate (%) Wheat” value in test [3] and in test [13] were 0% and 20%, respectively. The “Growth inhibition rate (%) Green foxtail” value in [4] and in test [14] was 100% each time. Moreover, the “Growth inhibition rate (%) Corn” value in test [5] came to 0%; in test [15] it was 50%. The “Growth inhibition rate (%) Barnyardgrass” value in [6] is reported as 98%; in test [16], 100%. Also, the “Growth inhibition rate (%) Velvetleaf” value in test [7] was 0%. Also, the “Growth inhibition rate (%) Redroot pigweed” value in test [8] amounted to 0%; in test [18] it was 10%. Also, the “Growth inhibition rate (%) Crabgrass” value in [9] turned out to be 99%; in test [19], 98%. For the same compound, the “Growth inhibition rate (%) Prickly sida” value in test [10] was found to be 0%. Moreover, the “Growth inhibition rate (%) Italian ryegrass” value in test [17] worked out at 83%. Besides, in [20], the “Growth inhibition rate (%) Wild oat” value is 85%.

Turning to `Cc1nn(C)c(=O)c(-c2cc(Oc3nc4ccc(Cl)cc4o3)ccc2OC(F)(F)F)c1O` [Compound 2-175], the “Growth inhibition rate (%) Rice” value amounted to 90% in [1] and 0% in test [11]. In addition, the figures for the “Growth inhibition rate (%) Soybean” value in test [2] and in [12] were 0% and 10%, respectively. Besides, the “Growth inhibition rate (%) Wheat” value in [3] and in [13] was 0% throughout. The “Growth inhibition rate (%) Green foxtail” value in [4] and in test [14] was 99% throughout. Moreover, the “Growth inhibition rate (%) Corn” value in test [5] turned out to be 30%; in test [15], 95%. Moreover, the “Growth inhibition rate (%) Barnyardgrass” value in [6] was found to be 100%; in test [16], 98%. In addition, the “Growth inhibition rate (%) Velvetleaf” value in test [7] is given as 0%. Moreover, the “Growth inhibition rate (%) Redroot pigweed” value in test [8] and in test [18] was 0% in each case. Also, the “Growth inhibition rate (%) Crabgrass” value in test [9] worked out at 95%; in test [19], 98%. The “Growth inhibition rate (%) Prickly sida” value in test [10] worked out at 0%. The “Growth inhibition rate (%) Italian ryegrass” value in test [17] is given as 50%. For the same compound, the “Growth inhibition rate (%) Wild oat” value in test [20] stood at 10%.

`Cc1nn(C)c(=O)c(-c2cc(Oc3ncc(C(F)(F)F)cc3Cl)ccc2OC(F)(F)F)c1O` [1-163]: the results for the “Growth inhibition rate (%) Rice” value in [1] and in test [11] were 40% and 75%, respectively. The “Growth inhibition rate (%) Soybean” value in [2] and in test [12] was 0% in each case. Also, the “Growth inhibition rate (%) Wheat” value in test [3] turned out to be 0%; in test [13], 60%. Besides, the “Growth inhibition rate (%) Green foxtail” value in test [4] and in [14] was 100% in each case. Moreover, the “Growth inhibition rate (%) Corn” value in [5] came out at 80%; in [15], 100%. Besides, the “Growth inhibition rate (%) Barnyardgrass” value in test [6] and in [16] was 100% each time. Moreover, the “Growth inhibition rate (%) Velvetleaf” value in [7] is 0%. Further, the “Growth inhibition rate (%) Redroot pigweed” value in test [8] and in test [18] was 0% in each case. Besides, the “Growth inhibition rate (%) Crabgrass” value in test [9] and in [19] was 100% throughout. In addition, in test [10], the “Growth inhibition rate (%) Prickly sida” value is recorded as 0%. The “Growth inhibition rate (%) Italian ryegrass” value in [17] was 99%. Moreover, the “Growth inhibition rate (%) Wild oat” value in test [20] was 100%.

As to `Cc1ccc(Oc2cnc3cc(Cl)ccc3n2)cc1-c1c(OC(=O)Oc2ccc(F)cc2)c(C)nn(C)c1=O` [Compound 3-57], the “Growth inhibition rate (%) Rice” value in [1] and in test [11] (setting [21]) was 0% each time. Moreover, the results for the “Growth inhibition rate (%) Soybean” value in test [2] and in [12] (setting [21]) were 30% and 25%, respectively. Moreover, the “Growth inhibition rate (%) Wheat” value in test [3] came to 0%; in test [13] (setting [21]), 95%. The figures for the “Growth inhibition rate (%) Green foxtail” value in test [4] and in test [14] (setting [21]) were 95% and 100%, respectively. The “Growth inhibition rate (%) Corn” value was 40% in [5] and 25% in [15] (setting [21]). The “Growth inhibition rate (%) Barnyardgrass” value was 90% in test [6] and 100% in test [16] (setting [21]). Besides, the “Growth inhibition rate (%) Velvetleaf” value in test [7] is 0%. Further, the “Growth inhibition rate (%) Redroot pigweed” value in test [8] and in test [18] (setting [21]) was 0% each time. Further, the results for the “Growth inhibition rate (%) Crabgrass” value in [9] and in test [19] (setting [21]) were 30% and 99%, respectively. The “Growth inhibition rate (%) Prickly sida” value in [10] is listed as 0%. Further, the “Growth inhibition rate (%) Italian ryegrass” value in [17] (setting [21]) is 95%. The “Growth inhibition rate (%) Wild oat” value in [20] (setting [21]) was found to be 99%.

For `CC(=O)Oc1c(C)nn(C)c(=O)c1-c1cc(Oc2cnc3cc(Cl)ccc3n2)ccc1C` [Compound 3-33], the “Growth inhibition rate (%) Rice” value in test [1] stood at 60%; in test [11], 93%. Moreover, the entries for the “Growth inhibition rate (%) Soybean” value in test [2] and in [12] were 0% and 30%, respectively. Besides, the results for the “Growth inhibition rate (%) Wheat” value in test [3] and in [13] were 40% and 100%, respectively. The “Growth inhibition rate (%) Green foxtail” value in [4] and in test [14] was 100% each time. Further, the “Growth inhibition rate (%) Corn” value stood at 20% in [5] and 10% in test [15]. For the same compound, the “Growth inhibition rate (%) Barnyardgrass” value in [6] and in test [16] was 100% in each case. Besides, the “Growth inhibition rate (%) Velvetleaf” value in [7] stood at 0%. Moreover, the “Growth inhibition rate (%) Redroot pigweed” value in test [8] and in test [18] was 0% in each case. The “Growth inhibition rate (%) Crabgrass” value in test [9] and in [19] was 99% throughout. In addition, in test [10], the “Growth inhibition rate (%) Prickly sida” value is reported as 0%. Also, in test [17], the “Growth inhibition rate (%) Italian ryegrass” value came out at 98%. The “Growth inhibition rate (%) Wild oat” value in [20] was determined as 100%.

The values are drawn from patent US10870638B2, “Pyridazinone compound or its salt, and herbicide containing it” (ISHIHARA SANGYO KAISHA, LTD., priority 2016, dated 2020).
